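Test compounds were applied to cells in 96-well plates for 48 hours at 5 doses. At the GI50, growth is halved. Definition used: TGI = concentration required for complete inhibition of growth.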
Legend:
Assay in all cases: NCI anticancer screen, dose series, 48 h
HT29 colon = tested on: HT29 colon
MDA-MB-435 = tested on: MDA-MB-435
SR leukemia = tested on: SR leukemia
HCT-116 colon = tested on: HCT-116 colon
A549 NSCLC = tested on: A549 NSCLC
CAKI-1 renal = tested on: CAKI-1 renal
OVCAR-5 ovarian = tested on: OVCAR-5 ovarian
U251 CNS = tested on: U251 CNS
T-47D breast = tested on: T-47D breast
SK-MEL-2 melanoma = tested on: SK-MEL-2 melanoma
NCI-H23 lung = tested on: NCI-H23 lung
UACC-62 melanoma = tested on: UACC-62 melanoma
SF-539 CNS = tested on: SF-539 CNS
RPMI-8226 leukemia = tested on: RPMI-8226 leukemia
HCC-2998 colon = tested on: HCC-2998 colon
MCF7 breast = tested on: MCF7 breast
LOX IMVI melanoma = tested on: LOX IMVI melanoma
IGROV1 ovarian = tested on: IGROV1 ovarian
786-0 renal = tested on: 786-0 renal
OVCAR-8 ovarian = tested on: OVCAR-8 ovarian
HCT-15 colon = tested on: HCT-15 colon
OVCAR-4 ovarian = tested on: OVCAR-4 ovarian
MOLT-4 leukemia = tested on: MOLT-4 leukemia
CCRF-CEM leukemia = tested on: CCRF-CEM leukemia
HOP-62 NSCLC = tested on: HOP-62 NSCLC
ACHN renal = tested on: ACHN renal
RXF 393 renal = tested on: RXF 393 renal
SK-MEL-28 melanoma = tested on: SK-MEL-28 melanoma
SK-MEL-5 melanoma = tested on: SK-MEL-5 melanoma
UO-31 renal = tested on: UO-31 renal
PC-3 prostate = tested on: PC-3 prostate
MALME-3M melanoma = tested on: MALME-3M melanoma
NCI-H226 lung = tested on: NCI-H226 lung
EKVX NSCLC = tested on: EKVX NSCLC
SK-OV-3 ovarian = tested on: SK-OV-3 ovarian
SF-295 CNS = tested on: SF-295 CNS
DU-145 prostate = tested on: DU-145 prostate
HOP-92 NSCLC = tested on: HOP-92 NSCLC
SW-620 colon = tested on: SW-620 colon
UACC-257 melanoma = tested on: UACC-257 melanoma
COLO 205 colon = tested on: COLO 205 colon
NCI-H460 lung = tested on: NCI-H460 lung
HS 578T breast = tested on: HS 578T breast
TK-10 renal = tested on: TK-10 renal
K-562 leukemia = tested on: K-562 leukemia
MDA-MB-231 breast = tested on: MDA-MB-231 breast
SN12C renal = tested on: SN12C renal
HL-60(TB) leukemia = tested on: HL-60(TB) leukemia
BT-549 breast = tested on: BT-549 breast
M14 melanoma = tested on: M14 melanoma
SNB-75 CNS = tested on: SNB-75 CNS
NCI/ADR-RES ovarian = tested on: NCI/ADR-RES ovarian
SF-268 CNS = tested on: SF-268 CNS
SNB-19 CNS = tested on: SNB-19 CNS
OVCAR-3 ovarian = tested on: OVCAR-3 ovarian
KM12 colon = tested on: KM12 colon
NCI-H522 lung = tested on: NCI-H522 lung
A498 renal = tested on: A498 renal

## COc1cnc2c(c1)C(=O)c1c-2n(CCCBr)c(=O)c2cc([N+](=O)[O-])ccc12
HT29 colon
  GI50: 202 nM
  TGI: 23100 nM
MDA-MB-435
  GI50: 474 nM
  TGI: 5040 nM
SR leukemia
  GI50: 37.8 nM
  TGI: > 100000 nM
HCT-116 colon
  GI50: 84.9 nM
  TGI: 1700 nM
A549 NSCLC
  GI50: 347 nM
  TGI: 6850 nM
CAKI-1 renal
  GI50: 45.9 nM
  TGI: 3050 nM
OVCAR-5 ovarian
  GI50: 1190 nM
  TGI: 10200 nM
U251 CNS
  GI50: 101 nM
  TGI: 3980 nM
T-47D breast
  GI50: 233 nM
  TGI: 3190 nM
SK-MEL-2 melanoma
  GI50: 2040 nM
  TGI: 6310 nM
NCI-H23 lung
  GI50: 218 nM
  TGI: 4270 nM
UACC-62 melanoma
  GI50: 82.1 nM
  TGI: 1480 nM
SF-539 CNS
  GI50: 279 nM
  TGI: 1070 nM
RPMI-8226 leukemia
  GI50: 301 nM
  TGI: 4700 nM
HCC-2998 colon
  GI50: 386 nM
  TGI: 10200 nM
MCF7 breast
  GI50: 45.9 nM
  TGI: 1200 nM
LOX IMVI melanoma
  GI50: 75 nM
  TGI: 549 nM
IGROV1 ovarian
  GI50: 163 nM
  TGI: 2350 nM
786-0 renal
  GI50: 223 nM
  TGI: 716 nM
OVCAR-8 ovarian
  GI50: 364 nM
  TGI: 7210 nM
HCT-15 colon
  GI50: 350 nM
  TGI: 15300 nM
OVCAR-4 ovarian
  GI50: 686 nM
  TGI: 9170 nM
MOLT-4 leukemia
  GI50: 52 nM
  TGI: 10200 nM
CCRF-CEM leukemia
  GI50: 57.5 nM
  TGI: 17800 nM
HOP-62 NSCLC
  GI50: 57.8 nM
  TGI: 2600 nM
ACHN renal
  GI50: 87.8 nM
  TGI: 3140 nM
RXF 393 renal
  GI50: 364 nM
  TGI: 2430 nM
SK-MEL-28 melanoma
  GI50: 1520 nM
  TGI: 12000 nM
SK-MEL-5 melanoma
  GI50: 224 nM
  TGI: 533 nM
UO-31 renal
  GI50: 56.6 nM
  TGI: 1510 nM
PC-3 prostate
  GI50: 314 nM
  TGI: 11700 nM
MALME-3M melanoma
  GI50: 352 nM
  TGI: 2020 nM
NCI-H226 lung
  GI50: 499 nM
  TGI: 3750 nM
EKVX NSCLC
  GI50: 1270 nM
  TGI: 10700 nM
SK-OV-3 ovarian
  GI50: 312 nM
  TGI: 7740 nM
SF-295 CNS
  GI50: 70.9 nM
  TGI: 852 nM
DU-145 prostate
  GI50: 200 nM
  TGI: 9090 nM
HOP-92 NSCLC
  GI50: 1770 nM
  TGI: 13700 nM
SW-620 colon
  GI50: 60.7 nM
  TGI: 5130 nM
UACC-257 melanoma
  GI50: 597 nM
  TGI: 4390 nM
COLO 205 colon
  GI50: 259 nM
  TGI: 2410 nM
NCI-H460 lung
  GI50: 40.7 nM
  TGI: 699 nM
HS 578T breast
  GI50: 2550 nM
  TGI: 40100 nM
TK-10 renal
  GI50: 2000 nM
  TGI: 16300 nM
K-562 leukemia
  GI50: 255 nM
  TGI: > 100000 nM
MDA-MB-231 breast
  GI50: 2580 nM
  TGI: 31500 nM
SN12C renal
  GI50: 269 nM
  TGI: 3480 nM
HL-60(TB) leukemia
  GI50: 310 nM
  TGI: 53000 nM
BT-549 breast
  GI50: 519 nM
  TGI: 9890 nM
M14 melanoma
  GI50: 140 nM
  TGI: 2120 nM
SNB-75 CNS
  GI50: 430 nM
  TGI: 13800 nM
NCI/ADR-RES ovarian
  GI50: 187 nM
  TGI: 12400 nM
SF-268 CNS
  GI50: 158 nM
  TGI: 9300 nM
SNB-19 CNS
  GI50: 282 nM
  TGI: 18700 nM
OVCAR-3 ovarian
  GI50: 248 nM
  TGI: 1050 nM
KM12 colon
  GI50: 375 nM
  TGI: 8770 nM
NCI-H522 lung
  GI50: 433 nM
  TGI: 8460 nM

## CCC(CN(C)C)C(=O)c1ccco1 (stereo unspecified)
HT29 colon
  TGI: > 100000 nM
MDA-MB-435
  TGI: > 100000 nM
SR leukemia
  TGI: > 100000 nM
HCT-116 colon
  TGI: > 100000 nM
A549 NSCLC
  TGI: > 100000 nM
CAKI-1 renal
  TGI: > 100000 nM
OVCAR-5 ovarian
  TGI: > 100000 nM
U251 CNS
  TGI: > 100000 nM
T-47D breast
  TGI: > 100000 nM
SK-MEL-2 melanoma
  TGI: > 100000 nM
NCI-H23 lung
  TGI: > 100000 nM
UACC-62 melanoma
  TGI: > 100000 nM
RPMI-8226 leukemia
  TGI: > 100000 nM
HCC-2998 colon
  TGI: > 100000 nM
MCF7 breast
  TGI: > 100000 nM
LOX IMVI melanoma
  TGI: > 100000 nM
IGROV1 ovarian
  TGI: > 100000 nM
786-0 renal
  TGI: > 100000 nM
OVCAR-8 ovarian
  TGI: > 100000 nM
HCT-15 colon
  TGI: > 100000 nM
OVCAR-4 ovarian
  TGI: > 100000 nM
MOLT-4 leukemia
  TGI: 96800 nM
HOP-62 NSCLC
  TGI: > 100000 nM
A498 renal
  TGI: > 100000 nM
ACHN renal
  TGI: > 100000 nM
RXF 393 renal
  TGI: > 100000 nM
SK-MEL-28 melanoma
  TGI: > 100000 nM
UO-31 renal
  TGI: > 100000 nM
PC-3 prostate
  TGI: > 100000 nM
MALME-3M melanoma
  TGI: > 100000 nM
EKVX NSCLC
  TGI: > 100000 nM
SK-OV-3 ovarian
  TGI: > 100000 nM
SF-295 CNS
  TGI: > 100000 nM
DU-145 prostate
  TGI: > 100000 nM
HOP-92 NSCLC
  TGI: > 100000 nM
SW-620 colon
  TGI: > 100000 nM
UACC-257 melanoma
  TGI: > 100000 nM
NCI-H460 lung
  TGI: > 100000 nM
HS 578T breast
  TGI: > 100000 nM
TK-10 renal
  TGI: > 100000 nM
K-562 leukemia
  TGI: > 100000 nM
MDA-MB-231 breast
  TGI: > 100000 nM
SN12C renal
  TGI: > 100000 nM
BT-549 breast
  TGI: > 100000 nM
M14 melanoma
  TGI: > 100000 nM
SNB-75 CNS
  TGI: > 100000 nM
NCI/ADR-RES ovarian
  TGI: > 100000 nM
SF-268 CNS
  TGI: > 100000 nM
SNB-19 CNS
  TGI: > 100000 nM
OVCAR-3 ovarian
  TGI: > 100000 nM
KM12 colon
  TGI: > 100000 nM
NCI-H522 lung
  TGI: 35600 nM

From PubChem BioAssay (NCI)
